According to patent US6423737B1, “Benzamidoxime prodrugs as antipneumocystic agents” (The University of North Carolina at Chapel Hill, priority 1995, dated 2002):

How the values were obtained:
Pneumocystis carinii [1] = assay: Anti-P. carinii activity in immunosuppressed rat model (lung cyst counts); type: in vivo, Sprague-Dawley rats; settings: for anti-P. carinii activity / mean cyst counts when given intravenously (in words): Formula I amidoximes, intravenous; for % saline, ORAL DOSING / % saline, IV DOSING: Table 2; for % saline, ORAL DOSING: oral by gavage daily for 14 days @33 μmol/kg body weight; for % saline, IV DOSING: tail vein injection daily for 14 days at 22 mg/kg body weight; for anti-P. carinii activity when given orally (in words): Formula I series, orally by gavage once daily for 14 days
Procedure: The activity of the compounds of Formula I against P. carinii was carried out according to an established method. See Tidwell, R. R., et al., J. Protozool. […] Agents Chemother. […] Agents Chemother. […] Briefly, male Sprague-Dawley rats (barrier raised, not certified virus-free) weighing 150-200 g each, were obtained (Hilltop Laboratories, Scottsdale, Pa.). Immediately upon arrival, the animals were caged individually and begun on a low protein (8%) diet and on drinking water containing tetracycline (0.5 mg/mL) and dexamethasone (1.0 μ/mL). This regimen was continued for eight weeks. At the beginning of the seventh week, animals were divided into groups of 8 or more, and the test compounds were administered for 14 days. Saline and pentamidine-treated groups were included as controls.
Animals were sacrificed at the end of the eighth week by chloroform inhalation. The left lung was weighed, ground through a No. 60 wire mesh screen, and suspended 1:10 (wt/vol) in 10 mM β-mercaptoethanol-Hanks' balanced salts solution (HBSS) without cations. Slides were prepared by spotting 5 μL of lung homogenate diluted 1:10 in HBSS with β-mercaptoethanol and allowed to air dry. The slides were stained with cresyl violet, and the cysts were counted by a blinded protocol. The number of cysts per gram of original lung tissue was calculated, and the groups were reported as the percentages of saline-treated controls.
The anti-P. carinii value for each compound is expressed as the percent of cysts in the treatment group as compared to the saline control group. Values are also compared to a positive control group consisting of animals treated intravenously with pentamidine.

[2] = Acute toxicity of single doses in normal rats; type: in vivo; settings: for time after injection to recovery: single IV 80 μmol/kg; for overt toxic responses after single oral doses: single oral doses as high as 160 μmol/kg; for overt acute adverse reactions following single intravenous injections, compared to the bis-benzamidines: single tail vein injection; for time after injection to recovery / persistence of symptoms: single IV 160 μmol/kg
[3] = In vitro metabolism by rat tissue homogenate 9000×g supernatants (HPLC); type: in vitro ADME; settings: for metabolism by rat liver homogenate 9000×g supernatants: 167 μM substrate plus cofactor solution, 37EC, 10 minutes, FIG. 1
Procedure: In vitro metabolism of diamidoximes 1, 3, 5, and 7 by rat liver homogenate 9000×g supernatants, post-mitochondrial 105,000×g supernatants or microsomal fractions were performed as previously described in B. J. Berger et al., Antimicrob. Agents and Chemotherapy 36, 1825-1831 (1992); B. J. Berger et al., J. Pharmacol. Experimental Therapeutics 256, 883-89 (1991). Briefly, adult male Sprague-Dawley rats, barrier raised, (Hilltop Laboratories, Scottsdale, Pa.) animals were given water and rat chow (Agway, Syracuse, N.Y.) ad libitum. The rats were euthanized by decapitation, the livers removed immediately, rinsed with 50 mM potassium phosphate buffer, pH 7.4, and placed on ice. All subsequent steps were performed at 4EC. The livers were minced, homogenized, and 9000×g supernatants, 105,000×g or 105,000×g microsomal pellets prepared. Each fraction was assayed for protein content as described in M. M. Bradford, Anal. Biochem. 72, 248-254 (1976) and stored at −80EC. Fractions from the rat kidneys, lungs, hearts and brains were prepared similarly.
Reaction mixtures consisted of 1.5 mL 50 mM potassium phosphate buffer, pH 7.4, 0.5 mL cofactor solution (2 mg/mL NADPH, 1.6 mg/mL MgCl2, 1.04 mg/mL glucose-6-phosphate and 2 units/mL glucose-6-phosphate dehydrogenase in 50 mM potassium phosphate buffer pH 7.4), 0.5 mL tissue homogenate and 0.5 mL of the appropriate diamidoxime substrate at a concentration of 167 μM. Reactions were started by adding substrate, then mixtures were incubated at 37EC in a shaking water bath for times shown in the figures. Reactions were terminated by extracting over C18 cartridges and assaying as described below.
(§1) Samples were extracted using solid phase extraction and assayed using high performance liquid chromatography (HPLC) by methods similar to those previously described in Berger et al. (1992) and Berger et al., (1991), supra. Briefly, samples spiked with 2,5-bis[4-(N-isopropylamidino)phenyl]furan dihydrochloride as the internal standard (IS) were extracted over activated C18 Bond Elut cartridges (Varian Associates, Sunnydale, Calif.), washed with water, 100% acetonitrile, then eluted with 75% acetonitrile/25% water containing 15 mm triethylamine and 35 mM acetic acid. The diamidoxime substrates elute in the 100% acetonitrile phase, while mono-amidine and diamidine products elute in the acetonitrile/water mixture containing triethylamine and acetic acid. Elutes were evaporated to dryness at 40EC under a gentle stream of nitrogen and resuspended in HPLC grade water.
Compounds were resolved using a Hewlett-Packard (Avondale, Pa.) model 1090 HPLC equipped with a HP 1050 variable wavelength detector set at 265 nm, a 4.6×250 mm Zorbax RX diisopropyl C8 column (Mac-Mod, Chadd's Ford, PA) maintained at 40EC and a Vectra 486/66U computer with HP Chemstations software. The mobile phase consisted of 15 mM triethylamine and 35 mM acetic acid in HPLC grade water for pump A, and 15 mM triethylamine and 35 mM acetic acid in 75% acetonitrile in water for pump B. The solvent flow rate was 1.5 mL/min, and the solvent gradient ran from 0% B to 25% B at 22 min, to 40% B at 25 min, then 90% B at 35 min. All solvents and reagents used for the assays were HPLC grade. Quantities of metabolites formed were calculated, using peak area rations of authentic standard, from standard addition curves generated by spiking standards into tissue homogenates or tissue culture medium.

BRL 3A hepatocytes = assay: Metabolism in intact cultured cells (HPLC of culture supernatants); type: in vitro ADME; settings: 10 μM substrate, 24 hours, 37EC; extracellular medium assayed; FIG. 4
Procedure: Metabolic experiments with intact cultured cells were performed using the BRL 3A hepatocyte line, obtained from the UNC-Chapel Hill Lineberger Tissue Culture Facility. Cells were routinely cultured in Costar (Cambridge, Mass.) 25 cm^2 of tissue culture flasks at 37EC under moist 5% CO2 and 95% air in Ham's F-12 medium (Gibco, Gaithersburg, Md.) containing 5% fetal bovine serum (HyClone Laboratories Inc., Logan, Utah). Confluent cultures were treated with 0.25% trypsin solution (Sigma Chemical Co., ST. Louis Mo.), then approximately 2×10^5 cells/well subcultured into Costar 6-well tissue culture chambers and the cells allowed to grow to confluency. Ten mL fresh medium was added to each culture well and incubations were started by adding 100 μL amidoxime solution (prepared in sterile water) to a final concentration of 10 μM. Cell cultures were incubated at 37EC under moist 5% CO2 and 95% air for 24 hours, then aliquots of culture supernatants extracted and assayed for metabolites as described below. Similar metabolic experiments were performed with cultured J774 A.1 mouse monocyte-macrophage cells cultured in DMEM F-12 medium containing 10% fetal bovine serum and H9c2 rat heart myoblast cells cultured in DMEM H medium containing 10% fetal bovine serum.
as §1
Compounds were resolved using a Hewlett-Packard (Avondale, Pa.) model 1090 HPLC equipped with a HP 1050 variable wavelength detector set at 265 nm, a 4.6×250 mm Zorbax RX diisopropyl C8 column (Mac-Mod, Chadd's Ford, PA) maintained at 40EC and a Vectra 486/66U computer with HP Chemstations software. […] Quantities of metabolites formed were calculated, using peak area rations of authentic standard, from standard addition curves generated by spiking standards into tissue homogenates or tissue culture medium.

Pneumocystis carinii [4] = settings: immunosuppressed rat model, D. W. Boykin et al., J. Med. Chem. 38, 912 (1995); cited from earlier work
[5] = Subjective scale of toxicity and tolerance during treatment in the immunosuppressed rat model; settings: subjective scale
From the text: ^b subjective scale of toxicity. […] In general, the larger the value the more severe the toxicity, with values greater than 2 indicating the death of some animals

| Structure (SMILES) | anti-P. carinii activity / mean cyst counts when given intravenously (in words) (Pneumocystis carinii [1]) | % saline, ORAL DOSING (Pneumocystis carinii [1]) [% saline] | % saline, IV DOSING (Pneumocystis carinii [1]) [% saline] | observed acute toxicity after single intravenous injection ([2]; normal rats, 80 μmol/kg) | time after injection to recovery ([2]; normal rats) [min] | overt toxic responses after single oral doses ([2]; normal rats) | overt acute adverse reactions following single intravenous injections, compared to the bis-benzamidines ([2]; normal rats) | metabolism by rat liver homogenate 9000×g supernatants [3] | metabolism in intact BRL 3A hepatocytes (BRL 3A hepatocytes) | anti-P. carinii activity when given orally (in words) (Pneumocystis carinii [1]) | observed acute toxicity after single intravenous injection ([2]; normal rats, 160 μmol/kg) | time after injection to recovery / persistence of symptoms ([2]; normal rats) | other results |
| --- | --- | --- | --- | --- | --- | --- | --- | --- | --- | --- | --- | --- | --- |
| NC(=NO)c1ccc(OCCCCCOc2ccc(C(N)=NO)cc2)cc1.O=C(O)/C=C\C(=O)O.O=C(O)/C=C\C(=O)O [Compound 1, 1,5-bis(4′-(N-hydroxyamidino)phenoxy)pentanedi-hemimaleinate] | significantly reduced compared to saline controls | 19.27 | 0.15 | Minor toxic responses, including barely observable hindleg ataxia and slight hypoactivity | 5 | No overt toxic responses | greatly reduced | forming large quantities of the monoamidine-monoamidoxime derivative, and smaller amounts of pentamidine | metabolized predominantly to the corresponding diamidine | – | – | – | observed acute toxicity after single intravenous injection ([2]; normal rats, bolus injections above 120 μmol/kg): severe dyspnea and profound hypoactivity; observed acute toxicity after single intravenous injection ([2]; normal rats, from 20 to 60 μmol/kg): no observable adverse reactions; metabolism by 9000×g supernatants of homogenates of rat liver, kidney, lung and heart ([3]; FIG. 3A-3D): into its amidine analog pentamidine |
| NC(=NO)c1ccc(OCCCOc2ccc(C(N)=NO)cc2)cc1.O=C(O)/C=C\C(=O)O.O=C(O)/C=C\C(=O)O [Compound 5, 1,3-bis(4′-(4-hydroxyamidino)phenoxy)propanedi-hemimaleinate] | significantly reduced compared to saline controls | 2.25 | 0.03 | – | – | No overt toxic responses | greatly reduced | metabolized similarly | metabolized predominantly to the corresponding diamidine | most active | only minor ataxia and/or hypoactivity | 5 min | observed acute toxicity after single intravenous injection ([2]; normal rats, 20, 40 or 80 μmol/kg): no overt toxicity |
| COc1cc(C(N)=NO)ccc1OCCCOc1ccc(C(N)=NO)cc1OC.O=C(O)/C=C\C(=O)O.O=C(O)/C=C\C(=O)O [Compound 7, 1,3-bis(2′-methoxy-4′-(N-hydroxyamidino)phenoxy)propanedi-hemimaleinate] | significantly reduced compared to saline controls | 3.71 | 0.03 | only very minor hypoactivity and dyspnea | 5 | No overt toxic responses | greatly reduced | metabolized similarly | metabolized predominantly to the corresponding diamidine | most active | pronounced hypoactivity, dyspnea, cyanosis, and increased salivation and lacrimation | approximately 10 minutes | observed acute toxicity after single intravenous injection ([2]; normal rats, 20 or 40 μg/kg): no observable adverse effects |
| N=C(N)c1ccc(-c2ccc(-c3ccc(C(=N)N)cc3)o2)cc1 [Compound 9, 2,5-bis-[4-amidinophenyl]furan, reference compound] | – | – | – | – | – | – | – | – | – | – | – | – | activity on oral administration, furan series (in words) (Pneumocystis carinii [1]; immunosuppressed rat model, orally by gavage): significantly less; activity and toxicity compared with pentamidine on intravenous dosage (Pneumocystis carinii [4]): more active and less toxic than pentamidine; Toxicity, IV DOSING ([5]; 0.03 μmol/kg/day): 0; Toxicity, IV DOSING ([5]; 0.3 μmol/kg/day): 0; Toxicity, IV DOSING ([5]; 2.7 μmol/kg/day): 0; Toxicity, IV DOSING ([5]; 13.3 μmol/kg/day): 0; Toxicity, IV DOSING ([5]; 26.6 μmol/kg/day): +1; Toxicity, ORAL DOSING ([5]; 39.8 μmol/kg/day): 0; Toxicity, ORAL DOSING ([5]; 66.3 μmol/kg/day, larger = more severe): 0 |
